In the test the target is T1, COX-2 (Homo sapiens, UniProt P35354).
T1 construct: Fresh blood was collected in tubes containing sodium heparin by vein puncture from healthy male volunteers; endogenous in cells; host or cells: human whole blood from healthy male volunteers, aspirin-pretreated and LPS-stimulated
T1 sequence (P35354 18-604): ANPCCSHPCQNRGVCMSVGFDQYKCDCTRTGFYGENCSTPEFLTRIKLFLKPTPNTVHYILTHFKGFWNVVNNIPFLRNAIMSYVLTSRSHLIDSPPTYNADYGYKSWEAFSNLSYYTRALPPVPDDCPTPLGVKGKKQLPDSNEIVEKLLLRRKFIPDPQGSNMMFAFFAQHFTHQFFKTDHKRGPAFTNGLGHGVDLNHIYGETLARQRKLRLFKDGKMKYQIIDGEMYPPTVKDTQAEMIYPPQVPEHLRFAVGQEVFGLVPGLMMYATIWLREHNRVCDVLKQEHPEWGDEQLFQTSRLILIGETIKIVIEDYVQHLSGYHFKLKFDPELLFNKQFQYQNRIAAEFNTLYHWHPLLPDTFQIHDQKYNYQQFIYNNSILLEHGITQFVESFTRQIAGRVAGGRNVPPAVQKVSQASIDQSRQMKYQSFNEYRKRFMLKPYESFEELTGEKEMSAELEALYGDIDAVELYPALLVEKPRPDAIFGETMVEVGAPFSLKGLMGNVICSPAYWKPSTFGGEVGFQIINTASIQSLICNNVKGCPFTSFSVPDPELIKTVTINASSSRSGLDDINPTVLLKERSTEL
Kind of test: Human whole blood assay (LPS-induced PGE2, COX-2 inhibition). The format is cell-based. As to conditions: LPS stimulated. As for the experimental part: Human whole blood provides a protein and cell rich milieu appropriate for the study of biochemical efficacy of anti-inflammatory compounds such as selective COX-2 inhibitors. […] This is correlating with the observation that COX-2 inhibitors have no effect on prostaglandin E2 (PGE2) production in normal blood. These inhibitors were active only after incubation of human blood with lipopolysaccharide (LPS), which induces COX-2 production in the blood.
Fresh blood was collected in tubes containing sodium heparin by vein puncture from healthy male volunteers. The subjects should have no apparent inflammatory conditions and not taken NSAIDs for at least 7 days prior to blood collection. Blood was preincubated with aspirin in vitro (12 μg/ml, at time zero) to inactivate COX-1 for 6 hours. Then test compounds (at various concentrations) or vehicle were added to blood. After that blood was stimulated with LPS B:4 (10 μg/ml) and incubated for another 18 h at 37° C. water bath. After which the blood was centrifuged, plasma was separated and stored at −80° C. (J. Pharmacol. Exp. Ther, 271, 1705, 1994; Proc. Natl. Acad. Sci. USA, 96, 7563, 1999). The plasma was assayed for PGE2 using Cayman ELISA kit as per the procedure outlined by the manufacturer (Cayman Chemicals, Ann Arbor, USA).

In US20090163521A1, “Novel Pyrazolopyrimidinone Derivatives” (ORCHID RESEARCH LABORATORIES LIMITED, priority 2005, published 2009) one finds inhibition data, which are given here for one compound.

One may read the inhibition as the change of the read-out against control, counted positive when it falls. A high value points to a response far below the control.

Structures are written as SMILES.

Where the note is “0.25 μM”, `CSc1ccc(-c2nc3[nH]nc(N)c3c(=O)n2-c2ccc(C)c(C)c2)cc1` [Example 2, 3-amino-5-(3,4-dimethylphenyl)-6-[4-(methylthio)phenyl]-1,5-dihydro-4H-pyrazolo[3,4-d]pyrimidin-4-one] registered an inhibition at 0.25 µM of 21.9%. This compound had an inhibition at 10 µM (10 μM) of 16.8%.
